In patent US10131679B2, “Substituted dihydropyrrolopyrazole compound” (UBE INDUSTRIES, LTD., priority 2014, dated 2018):

How the values were obtained:
Assay type in all cases: cell-based
[1] = system: IL-2 production in human peripheral blood mononuclear cell (PBMC); experiment: Human PBMC CD3/CD28-induced IL-2 production inhibition test; conditions: 48 h, CD3/CD28 stimulation, incubation for 2 days, ELISA
Text: Human Peripheral Blood Mononuclear Cell (PBMC) CD3/CD28-Induced IL-2 Production Inhibition Test
PBMC was separated and collected by using Ficoll-Paque (17-1440-02 manufactured by GE Healthcare Japan Corp.) from blood collected from healthy human adult in the presence of heparin. RPMI1640 medium (manufactured by GIBCO/Thermo Fisher Scientific, Inc., REF. 11875) containing 10% FBS (manufactured by GIBCO/Thermo Fisher Scientific, Inc. REF. 10082) and containing a test compound dissolved in DMSO and 2 μg/mL anti-hCD28 (manufactured by R&D Systems, Inc., Cat. No. MAB342) was added at 100 μL/well to T cell Activation Plate Anti-Human CD3 96-well plate (manufactured by Corning Inc., REF. 354725), and subsequently, a PBMC suspension adjusted such that the number of cells was 2×10^6 cells/mL was added at 100 μL/well (final DMSO concentration: 0.1%). A RPMI1640 medium containing 10% FBS and containing 0.1% DMSO and 2 μg/mL anti-hCD28 was similarly added to wells not supplemented with the test compound. After incubation for 2 days in a carbon dioxide incubator, the culture supernatant was collected. The collected culture supernatant was stored at −20° C. until IL-2 content measurement.
In the measurement of IL-2 content in the culture supernatant, a sandwich ELISA kit Quantikine Human IL-2 (manufactured by R&D Systems, Inc., Cat. No. S2050) was used. The IL-2 content of each sample was calculated from the calibration curve of Standard IL-2 included in the kit. When the amount of IL-2 produced by CD3/CD28 stimulation in the case of the addition of only DMSO was defined as 100%, the rate of inhibition of IL-2 production at each concentration of the test compound was calculated. A test compound concentration inhibiting 50% of IL-2 production was calculated as an IC50 value (nM) from the concentration of the added test compound and the rate of inhibition of IL-2 production by the test compound by using EXSUS (version 8.0.0 or version 8.0.1, manufactured by CAC Exicare Corp.).

[2] = system: human breast cancer cell line (MCF-7); experiment: Human breast cancer (MCF-7) cell growth inhibition test; conditions: MCF7, 72 h, MCF-7, culture for 3 days, sulforhodamine B absorbance
Procedure: Human Breast Cancer (MCF-7) Cell Growth Inhibition Test
The measurement of a human breast cancer cell growth inhibitory effect was carried out by modifying the method of Simak et al. (Cancer Research, 69, 6208 (2009)).
A human breast cancer cell line (MCF-7) manufactured by DS Pharma Biomedical Co., Ltd., Cat. No. EC86012803, was cultured in MEM (manufactured by GIBCO/Thermo Fisher Scientific, Inc., REF. 11095-080) medium containing 10% FBS (manufactured by GIBCO/Thermo Fisher Scientific, Inc., REF. 10082-147), nonessential amino acids (manufactured by GIBCO/Thermo Fisher Scientific, Inc., REF. 11140-050), and 1% penicillin/streptomycin/amphotericin B (manufactured by GIBCO/Thermo Fisher Scientific, Inc., REF. 15240-096) and inoculated at 3.0×10^3 cells/well to a 96-well plate (manufactured by Corning Inc., REF. 353072). After overnight culture in a carbon dioxide incubator, it was replaced with a fresh MEM medium containing 10% FBS, nonessential amino acids, and 1% penicillin/streptomycin/amphotericin B on the next day, and a test compound dissolved in DMSO (manufactured by Wako Pure Chemical Industries, Ltd., Code No. 043-07216) (final DMSO concentration: 0.1%) was added and left standing in a carbon dioxide incubator. After culture for 3 days, the absorbance of each well was measured by using In Vitro Toxicology Assay Kit Sulforhodamine B based (manufactured by Sigma-Aldrich Co. LLC., Pcode 1001910706).
(§1) The rate of inhibition of cell growth at each concentration was calculated from the test compound concentration and the absorbance of sulforhodamine B, and the concentration of the test compound necessary for inhibiting 50% of cell growth (IC50 value) was calculated by using EXSUS (version 8.0.0 or version 8.0.1, manufactured by CAC Exicare Corp.).

[3] = system: Human keratinocytes (NHEK-Neo Pooled); experiment: Human keratinocyte growth inhibition assay; conditions: 48 h, culture for 2 days, Cell Counting Kit-8
Procedure: Human Keratinocyte Growth Inhibition Assay
The measurement of a human keratinocyte growth inhibitory effect was carried out by modifying the method of Schafer et al. (British Journal of Pharmacology, 159, 842 (2011)).
Human keratinocytes (NHEK-Neo Pooled, manufactured by Lonza Group AG, Cat. No. 00192906) were cultured in KGM-Gold Bullet Kit (manufactured by Lonza Group AG, Cat. No. 00192060) and inoculated at 2.0×10^3 cells/well to a 96-well plate. After overnight culture in a carbon dioxide incubator, a test compound dissolved in DMSO (final DMSO concentration: 0.1%) was added and left standing in a carbon dioxide incubator. After culture for 2 days, the absorbance thereof was measured by using Cell Counting Kit-8 (343-07623 manufactured by Dojindo Laboratories)).
as §1, with “Cell Counting Kit-8,” for “sulforhodamine B,”

IC50 [2] [nM] | SMILES | IC50 [1] [nM] | IC50 [3] [nM]
≤ 500 | CC1(C)c2[nH]nc(NC(=O)C3([Si](C)(C)C)CCC3)c2CN1C(=O)N[C@H](CO)c1ccccc1 [IV-114, (S)—N-(2-Hydroxy-1-phenylethyl)-6,6-dimethyl-3-[1-(trimethylsilyl)cyclobutanecarboxamido]-4,6-dihydropyrrolo[3,4-c]pyrazole-5(1H)-carboxamide] | ≤ 50 | –
≤ 500 | COC[C@@H](NC(=O)N1Cc2c(NC(=O)C3([Si](C)(C)C)CCC3)n[nH]c2C1(C)C)c1ccccc1 [IV-123, (S)—N-(2-Methoxy-1-phenylethyl)-6,6-dimethyl-3-[1-(trimethylsilyl)cyclobutanecarboxamido]-4,6-dihydropyrrolo[3,4-c]pyrazole-5(1H)-carboxamide] | ≤ 50 | ≤ 500
≤ 500 | CC(C)(O)[C@@H](NC(=O)N1Cc2c(NC(=O)C3([Si](C)(C)C)CCC3)n[nH]c2C1(C)C)c1ccccc1 [IV-171, (S)—N-(2-Hydroxy-2-methyl-1-phenylpropyl)-6,6-dimethyl-3-[1-(trimethylsilyl)cyclobutanecarboxamido]-4,6-dihydropyrrolo[3,4-c]pyrazole-5(1H)-carboxamide] | ≤ 50 | ≤ 500
≤ 500 | CC1(C)c2[nH]nc(NC(=O)C3([Si](C)(C)C)CCC3)c2CN1C(=O)N[C@H](CCO)c1ccccc1 [IV-227, (R)—N-(3-Hydroxy-1-phenylpropyl)-6,6-dimethyl-3-[1-(trimethylsilyl)cyclobutanecarboxamido]-4,6-dihydropyrrolo[3,4-c]pyrazole-5(1H)-carboxamide] | ≤ 50 | ≤ 500
